Assay results reported in ChEMBL document CHEMBL1141727, “Isolation and cytotoxic evaluation of marine sponge-derived norterpene peroxides” (J Nat Prod, 1998).

Legend:
Assay type in all cases: functional
HL-60(TB) = assay: Growth inhibition of human HL-60(TB) cells
MOLT-4 = assay: Growth inhibition of human MOLT4 cells
A549 = assay: Growth inhibition of human A549 cells
EKVX = assay: Growth inhibition of human EKVX cells
HOP-62 = assay: Growth inhibition of human HOP62 cells
HOP-92 = assay: Growth inhibition of human HOP92 cells
NCI-H226 = assay: Growth inhibition of human NCI-H226 cells
NCI-H23 = assay: Growth inhibition of human NCI-H23 cells
NCI-H322M = assay: Growth inhibition of human NCI-H322M cells
NCI-H460 = assay: Growth inhibition of human NCI-H460 cells
COLO 205 = assay: Growth inhibition of human COLO205 cells
HCC 2998 = assay: Growth inhibition of human HCC2998 cells
HCT-116 = assay: Growth inhibition of human HCT116 cells
HCT-15 = assay: Growth inhibition of human HCT15 cells
HT-29 = assay: Growth inhibition of human HT-29 cells
KM12 = assay: Growth inhibition of human KM12 cells
SW-620 = assay: Growth inhibition of human SW620 cells
SF-268 = assay: Growth inhibition of human SF268 cells
SF-295 = assay: Growth inhibition of human SF295 cells
SF-539 = assay: Growth inhibition of human SF539 cells
SNB-19 = assay: Growth inhibition of human SNB19 cells
SNB-75 = assay: Growth inhibition of human SNB75 cells
U-251 = assay: Growth inhibition of human U251 cells
LOX IMVI = assay: Growth inhibition of human LOXIMVI cells
M14 = assay: Growth inhibition of human M14 cells
SK-MEL-2 = assay: Growth inhibition of human SK-MEL-2 cells
SK-MEL-28 = assay: Growth inhibition of human SK-MEL-28 cells
SK-MEL-5 = assay: Growth inhibition of human SK-MEL-5 cells
UACC-257 = assay: Growth inhibition of human UACC257 cells
IGROV-1 = assay: Growth inhibition of human IGROV1 cells
OVCAR-3 = assay: Growth inhibition of human OVCAR-3 cells
OVCAR-4 = assay: Growth inhibition of human OVCAR4 cells
OVCAR-5 = assay: Growth inhibition of human OVCAR5 cells
OVCAR-8 = assay: Growth inhibition of human OVCAR8 cells
SK-OV-3 = assay: Growth inhibition of human SKOV3 cells
786-0 = assay: Growth inhibition of human 786-0 cells
A498 = assay: Growth inhibition of human A498 cells
ACHN = assay: Growth inhibition of human ACHN cells
CAKI-1 = assay: Growth inhibition of human Caki1 cells
RXF 393 = assay: Growth inhibition of human […] cells
SN12C = assay: Growth inhibition of human SN12C cells
TK-10 = assay: Growth inhibition of human TK10 cells
UO-31 = assay: Growth inhibition of human UO31 cells
PC-3 = assay: Growth inhibition of human PC3 cells
MCF7 = assay: Growth inhibition of human MCF7 cells
[1] = Growth inhibition of human MCF7/ADR resistant cells; details: NCI/ADR-RES
MDA-MB-231 = assay: Growth inhibition of human MDA-MB-231 cells
MDA-MB-435 = assay: Growth inhibition of human MDA-MB-435 cells
MDA-N = assay: Growth inhibition of human MDA-N cells
BT-549 = assay: Growth inhibition of human BT549 cells
T47D = assay: Growth inhibition of human T47D cells
L1210 = assay: Growth inhibition of mouse L1210 cells assessed as zone units at 50 ug/disk by disk diffusion agar colony formation assay
P388 = assay: Growth inhibition of mouse P388 cells assessed as zone units at 50 ug/disk by disk diffusion agar colony formation assay
PO3 = assay: Growth inhibition of mouse PO3 cells assessed as zone units at 50 ug/disk by disk diffusion agar colony formation assay
MC-38 = assay: Growth inhibition of mouse C38 cells assessed as zone units at 50 ug/disk by disk diffusion agar colony formation assay
[2] = Growth inhibition of mouse M17/ADR cells assessed as zone units at 50 ug/disk by disk diffusion agar colony formation assay
CX-1 = assay: Growth inhibition of human CX-1 cells assessed as zone units at 50 ug/disk by disk diffusion agar colony formation assay
[3] = Growth inhibition of human H116 cells assessed as zone units at 50 ug/disk by disk diffusion agar colony formation assay
CCRF-CEM = assay: Growth inhibition of human CCRF-CEM cells
[4] = Growth inhibition of human […] cells
SR = assay: Growth inhibition of human SR cells
NCI-H522 = assay: Growth inhibition of human NCI-H522 cells
Malme-3M = assay: Growth inhibition of human MALME-3M cells
UACC-62 = assay: Growth inhibition of human UACC62 cells
DU-145 = assay: Growth inhibition of human DU145 cells
[5] = Growth inhibition of human Hs 578T cells

Compound: CC1=C(CC/C(C)=C/CC[C@@]2(C)CC[C@H]([C@H](C)C(=O)O)OO2)C(C)(C)CCC1
- GI50 (HL-60(TB)): 1.77 µM
- GI50 (MOLT-4): > 5 µM
- GI50 (A549): > 5 µM
- GI50 (EKVX): > 5 µM
- GI50 (HOP-62): > 5 µM
- GI50 (HOP-92): > 5 µM
- GI50 (NCI-H226): > 5 µM
- GI50 (NCI-H23): > 5 µM
- GI50 (NCI-H322M): > 5 µM
- GI50 (NCI-H460): > 5 µM
- GI50 (COLO 205): > 5 µM
- GI50 (HCC 2998): > 5 µM
- GI50 (HCT-116): > 5 µM
- GI50 (HCT-15): > 5 µM
- GI50 (HT-29): > 5 µM
- GI50 (KM12): > 5 µM
- GI50 (SW-620): > 5 µM
- GI50 (SF-268): > 5 µM
- GI50 (SF-295): > 5 µM
- GI50 (SF-539): > 5 µM
- GI50 (SNB-19): > 5 µM
- GI50 (SNB-75): > 5 µM
- GI50 (U-251): > 5 µM
- GI50 (LOX IMVI): 2.17 µM
- GI50 (M14): > 5 µM
- GI50 (SK-MEL-2): > 5 µM
- GI50 (SK-MEL-28): 0.43 µM
- GI50 (SK-MEL-5): > 5 µM
- GI50 (UACC-257): > 5 µM
- GI50 (IGROV-1): 1.11 µM
- GI50 (OVCAR-3): > 5 µM
- GI50 (OVCAR-4): > 5 µM
- GI50 (OVCAR-5): > 5 µM
- GI50 (OVCAR-8): > 5 µM
- GI50 (SK-OV-3): > 5 µM
- GI50 (786-0): > 5 µM
- GI50 (A498): > 5 µM
- GI50 (ACHN): > 5 µM
- GI50 (CAKI-1): > 5 µM
- GI50 (RXF 393): > 5 µM
- GI50 (SN12C): > 5 µM
- GI50 (TK-10): > 5 µM
- GI50 (UO-31): > 5 µM
- GI50 (PC-3): > 5 µM
- GI50 (MCF7): > 5 µM
- GI50 [1]: > 5 µM
- GI50 (MDA-MB-231): > 5 µM
- GI50 (MDA-MB-435): > 5 µM
- GI50 (MDA-N): > 5 µM
- GI50 (BT-549): > 5 µM
- GI50 (T47D): > 5 µM
- Activity (L1210): 110 Zone units
- Activity (P388): 110 Zone units
- Activity (PO3): 40 Zone units
- Activity (MC-38): 60 Zone units
- Activity [2]: 80 Zone units
- Activity (CX-1): 100 Zone units
- Activity [3]: 80 Zone units

Compound: CC(=O)CC/C=C(\C)CCC1=C(C)CCCC1(C)C
- GI50 (CCRF-CEM): 2.94 µM
- GI50 (HL-60(TB)): 2.88 µM
- GI50 (MOLT-4): 2.08 µM
- GI50 [4]: > 15 µM
- GI50 (SR): 4.94 µM
- GI50 (A549): > 15 µM
- GI50 (EKVX): > 15 µM
- GI50 (HOP-62): > 15 µM
- GI50 (HOP-92): > 15 µM
- GI50 (NCI-H226): > 15 µM
- GI50 (NCI-H23): > 15 µM
- GI50 (NCI-H322M): > 15 µM
- GI50 (NCI-H460): > 15 µM
- GI50 (NCI-H522): > 15 µM
- GI50 (COLO 205): > 15 µM
- GI50 (HCC 2998): > 15 µM
- GI50 (HCT-116): > 15 µM
- GI50 (HCT-15): > 15 µM
- GI50 (HT-29): > 15 µM
- GI50 (KM12): 8.61 µM
- GI50 (SW-620): 6.34 µM
- GI50 (SF-295): > 15 µM
- GI50 (SF-539): > 15 µM
- GI50 (SNB-19): < 0.0015 µM
- GI50 (SNB-75): 5.15 µM
- GI50 (U-251): > 15 µM
- GI50 (Malme-3M): > 15 µM
- GI50 (M14): < 0.0015 µM
- GI50 (SK-MEL-2): > 15 µM
- GI50 (SK-MEL-28): > 15 µM
- GI50 (SK-MEL-5): > 15 µM
- GI50 (UACC-257): > 15 µM
- GI50 (UACC-62): > 15 µM
- GI50 (IGROV-1): 9.53 µM
- GI50 (OVCAR-3): > 15 µM
- GI50 (OVCAR-4): > 15 µM
- GI50 (OVCAR-5): > 15 µM
- GI50 (OVCAR-8): > 15 µM
- GI50 (SK-OV-3): > 15 µM
- GI50 (786-0): > 15 µM
- GI50 (A498): > 15 µM
- GI50 (ACHN): > 15 µM
- GI50 (CAKI-1): > 15 µM
- GI50 (RXF 393): > 15 µM
- GI50 (SN12C): 9.48 µM
- GI50 (UO-31): > 15 µM
- GI50 (DU-145): > 15 µM
- GI50 (MCF7): > 15 µM
- GI50 [1]: > 15 µM
- GI50 (MDA-MB-231): > 15 µM
- GI50 [5]: 1.86 µM
- GI50 (MDA-MB-435): > 15 µM
- GI50 (MDA-N): > 15 µM
- GI50 (BT-549): > 15 µM
- GI50 (T47D): > 15 µM
- Activity (L1210): 60 Zone units
- Activity (P388): 60 Zone units
- Activity (PO3): 40 Zone units
- Activity [2]: 0 Zone units
- Activity [3]: 30 Zone units
